Test results taken from patent US9725416B2, “Ethynyl derivatives” (Hoffmann-La Roche Inc., priority 2014, dated 2017).

What was measured:
mice treated with MPTP = conditions: cited from earlier work
mice [1] = conditions: reported by Addex 2010; cited from earlier work
rats = conditions: cited from earlier work
mice [2] = conditions: reported by Addex 2010; cited from earlier work; remark: listed apart in the source
human mGlu4 receptor = molecular target: T1, human mGlu4 receptor (Homo sapiens, UniProt Q14833); assay: Ca2+ mobilization in vitro assay on recombinant human mGlu4 expressed in HEK293 cells (mGlu4 PAM); assay type: cell-based; conditions: for Emax: HEK293, maximal response in % of the maximal stimulatory effect obtained with saturating concentrations of L-AP4, read-out: Eff. (%); for EC50: HEK-293 cells, Ca2+ mobilization, L-AP4 added at EC20
T1 construct: expressed in transfected cells; host or cells: HEK-293 (monoclonal, stably transfected)
Procedure, shortened: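 HEK293 line stably expressing human mGlu4 (low expression, low constitutive activity), Fluo-4AM loaded; compounds (11 half-log dilutions) preincubated 10-30 min at 37 °C, then L-AP4 added at its EC20, determined daily. EC50 from peak fluorescence minus basal, normalized to saturating L-AP4 maximum, four-parameter fit.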

[3] = test system: 6-OHDA rodent model of PD; conditions: cited from earlier work

T1 sequence (Q14833 33-912): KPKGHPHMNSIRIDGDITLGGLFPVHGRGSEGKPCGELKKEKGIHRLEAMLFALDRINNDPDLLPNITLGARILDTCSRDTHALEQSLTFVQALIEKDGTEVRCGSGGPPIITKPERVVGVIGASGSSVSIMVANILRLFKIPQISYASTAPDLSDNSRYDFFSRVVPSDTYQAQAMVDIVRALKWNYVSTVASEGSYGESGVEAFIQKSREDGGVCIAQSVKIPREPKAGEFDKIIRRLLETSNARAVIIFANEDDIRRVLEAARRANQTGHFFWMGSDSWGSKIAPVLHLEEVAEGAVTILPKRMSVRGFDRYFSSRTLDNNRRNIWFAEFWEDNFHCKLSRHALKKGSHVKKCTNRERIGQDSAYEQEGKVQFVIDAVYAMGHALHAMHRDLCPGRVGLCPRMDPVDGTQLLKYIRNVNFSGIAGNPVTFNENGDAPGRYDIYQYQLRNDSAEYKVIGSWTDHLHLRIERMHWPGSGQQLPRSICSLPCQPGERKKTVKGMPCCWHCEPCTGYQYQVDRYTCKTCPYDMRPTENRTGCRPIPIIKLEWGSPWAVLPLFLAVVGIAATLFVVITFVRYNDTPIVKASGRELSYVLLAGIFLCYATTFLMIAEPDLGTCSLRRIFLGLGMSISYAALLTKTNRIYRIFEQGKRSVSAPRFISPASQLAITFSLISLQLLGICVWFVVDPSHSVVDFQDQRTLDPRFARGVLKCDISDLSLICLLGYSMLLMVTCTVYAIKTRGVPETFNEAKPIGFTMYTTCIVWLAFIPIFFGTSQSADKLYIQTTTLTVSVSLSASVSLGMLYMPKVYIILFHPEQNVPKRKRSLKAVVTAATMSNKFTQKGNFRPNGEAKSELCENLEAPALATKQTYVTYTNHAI

Structure (SMILES)	Emax (human mGlu4 receptor)	EC50 (human mGlu4 receptor)	other results
O=C(Nc1ccccc1)C12CC1/C(=N\O)c1ccccc1O2 (single isomer, unassigned; (-)) [(−)-PHCCC]	–	–	nigrostriatal degeneration (mice treated with MPTP): reduced nigrostriatal degeneration
Cc1ccnc(Nc2nc(-c3cn[nH]c3)c(C)s2)n1 [ADX88178]	–	–	activity in marble burying test (mice [1]): active; profile in rat EPM test (rats; rat, after oral dosing): anxiolytic-like profile; activity in EPM (rats; rats, reported by Addex 2010): active; activity in EPM (mice [2]): active
CN1C(=O)N(c2c(F)cc(C#Cc3ccccc3)cc2F)C(=O)C[C@@]1(C)c1ccnnc1 [Example 61, (6S)-3-[2,6-Difluoro-4-(2-phenylethynyl)phenyl]-1,6-dimethyl-6-pyridazin-4-yl-hexahydropyrimidine-2,4-dione]	136%	84 nM	–
Cc1cc([C@]2(C)CC(=O)N(c3c(F)cc(C#Cc4ccccc4)cc3F)C(=O)N2C)ccn1 [Example 62, (6S)-3-[2,6-Difluoro-4-(2-phenylethynyl)phenyl]-1,6-dimethyl-6-(2-methyl-4-pyridyl)hexahydropyrimidine-2,4-dione]	102%	56 nM	–
COc1ccc([C@]2(C)CC(=O)N(c3c(F)cc(C#Cc4ccccc4)cc3F)C(=O)N2C)cn1 [Example 63, (6S)-3-[2,6-Difluoro-4-(2-phenylethynyl)phenyl]-6-(6-methoxy-3-pyridyl)-1,6-dimethyl-hexahydropyrimidine-2,4-dione]	109%	42 nM	–
CN1C(=O)N(c2c(F)cc(C#Cc3cccnc3)cc2F)C(=O)C[C@@]1(C)c1ccnc(Cl)c1 [Example 64, (6S)-6-(2-Chloro-4-pyridyl)-3-[2,6-difluoro-4-[2-(3-pyridyl)ethynyl]phenyl]-1,6-dimethyl-hexahydropyrimidine-2,4-dione]	119%	124 nM	–
CN1C(=O)N(c2c(F)cc(C#Cc3ccccc3)cc2F)C(=O)C[C@@]1(C)c1ccc(=O)[nH]c1 [Example 65, (6S)-3-[2,6-Difluoro-4-(2-phenylethynyl)phenyl]-1,6-dimethyl-6-(6-oxo-1H-pyridin-3-yl)hexahydropyrimidine-2,4-dione]	123%	36 nM	–
CN1C(=O)N(c2c(F)cc(C#Cc3ccccc3)cc2F)C(=O)C[C@@]1(C)c1ccc(=O)n(C)c1 [Example 66, (6S)-3-[2,6-Difluoro-4-(2-phenylethynyl)phenyl]-1,6-dimethyl-6-(1-methyl-6-oxo-3-pyridyl)hexahydropyrimidine-2,4-dione]	114%	43 nM	–
CCn1cc([C@]2(C)CC(=O)N(c3c(F)cc(C#Cc4ccccc4)cc3F)C(=O)N2C)ccc1=O [Example 67, (6S)-3-[2,6-Difluoro-4-(2-phenylethynyl)phenyl]-6-(1-ethyl-6-oxo-3-pyridyl)-1,6-dimethyl-hexahydropyrimidine-2,4-dione]	106%	56 nM	–
CC(C)n1cc([C@]2(C)CC(=O)N(c3c(F)cc(C#Cc4ccccc4)cc3F)C(=O)N2C)ccc1=O [Example 68, (6S)-3-[2,6-Difluoro-4-(2-phenylethynyl)phenyl]-6-(1-isopropyl-6-oxo-3-pyridyl)-1,6-dimethyl-hexahydropyrimidine-2,4-dione]	113%	44 nM	–
CC(C)Oc1ccc([C@]2(C)CC(=O)N(c3c(F)cc(C#Cc4ccccc4)cc3F)C(=O)N2C)cn1 [Example 69, (6S)-3-[2,6-Difluoro-4-(2-phenylethynyl)phenyl]-6-(6-isopropoxy-3-pyridyl)-1,6-dimethyl-hexahydropyrimidine-2,4-dione]	95%	97 nM	–
CC(C)N1C(=O)N(c2c(F)cc(C#Cc3ccccc3)cc2F)C(=O)C[C@@]1(C)c1cccnc1 [Example 70, (6S)-3-[2,6-Difluoro-4-(2-phenylethynyl)phenyl]-1-isopropyl-6-methyl-6-(3-pyridyl)hexahydropyrimidine-2,4-dione]	106%	73 nM	–
CN1C(=O)N(c2c(F)cc(C#Cc3ccccc3)cc2Cl)C(=O)C[C@@]1(C)c1cccnc1 [Example 71, (6S)-3-[2-Chloro-6-fluoro-4-(2-phenylethynyl)phenyl]-1,6-dimethyl-6-(3-pyridyl)hexahydropyrimidine-2,4-dione]	105%	148 nM	–
COc1cc([C@]2(C)CC(=O)N(c3c(F)cc(C#Cc4ccccc4)cc3F)C(=O)N2C)ccn1 [Example 73, (6S)-3-[2,6-Difluoro-4-(2-phenylethynyl)phenyl]-6-(2-methoxy-4-pyridyl)-1,6-dimethyl-hexahydropyrimidine-2,4-dione]	120%	47 nM	–
CN1C(=O)N(c2c(F)cc(C#Cc3ccccc3)cc2F)C(=O)C[C@@]1(C)c1cc[nH]c(=O)c1 [Example 74, (6S)-3-[2,6-Difluoro-4-(2-phenylethynyl)phenyl]-1,6-dimethyl-6-(2-oxo-1H-pyridin-4-yl)hexahydropyrimidine-2,4-dione]	116%	42 nM	–
CN1C(=O)N(c2c(F)cc(C#Cc3ccccc3)cc2F)C(=O)C[C@@]1(C)c1ccn(C)c(=O)c1 [Example 75, (6S)-3-[2,6-Difluoro-4-(2-phenylethynyl)phenyl]-1,6-dimethyl-6-(1-methyl-2-oxo-4-pyridyl)hexahydropyrimidine-2,4-dione]	108%	55 nM	–
Cc1nccc([C@]2(C)CC(=O)N(c3c(F)cc(C#Cc4ccccc4)cc3F)C(=O)N2C)n1 [Example 76, (6S)-3-[2,6-Difluoro-4-(2-phenylethynyl)phenyl]-1,6-dimethyl-6-(2-methylpyrimidin-4-yl)hexahydropyrimidine-2,4-dione]	111%	103 nM	–
CCN1C(=O)N(c2c(F)cc(C#Cc3ccccc3)cc2F)C(=O)C[C@@]1(C)c1ccnc(C)c1 [Example 77, (6S)-3-[2,6-Difluoro-4-(2-phenylethynyl)phenyl]-1-ethyl-6-methyl-6-(2-methyl-4-pyridyl)hexahydropyrimidine-2,4-dione]	111%	68 nM	–
CN1C(=O)N(c2c(F)cc(C#Cc3ccccc3)cc2F)C(=O)C[C@@]1(C)c1ccncc1 [Example 78, (6S)-3-[2,6-Difluoro-4-(2-phenylethynyl)phenyl]-1,6-dimethyl-6-(4-pyridyl)hexahydropyrimidine-2,4-dione]	111%	68 nM	–
COc1ncc([C@]2(C)CC(=O)N(c3c(F)cc(C#Cc4ccccc4)cc3F)C(=O)N2C)cn1 [Example 79, (6S)-3-[2,6-Difluoro-4-(2-phenylethynyl)phenyl]-6-(2-methoxypyrimidin-5-yl)-1,6-dimethyl-hexahydropyrimidine-2,4-dione]	105%	46 nM	–
CN1C(=O)N(c2c(F)cc(C#Cc3ccccc3)cc2F)C(=O)C[C@@]1(C)c1cnc(=O)[nH]c1 [Example 80, (6S)-3-[2,6-Difluoro-4-(2-phenylethynyl)phenyl]-1,6-dimethyl-6-(2-oxo-1H-pyrimidin-5-yl)hexahydropyrimidine-2,4-dione]	105%	185 nM	–
COc1ccc([C@]2(C)CC(=O)N(c3c(F)cc(C#Cc4ccccc4)cc3F)C(=O)N2C)nn1 [Example 81, (6S)-3-[2,6-Difluoro-4-(2-phenylethynyl)phenyl]-6-(6-methoxypyridazin-3-yl)-1,6-dimethyl-hexahydropyrimidine-2,4-dione]	100%	28 nM	–
CN1C(=O)N(c2c(F)cc(C#Cc3ccccc3)cc2F)C(=O)C[C@@]1(C)c1ccc(=O)[nH]n1 [Example 82, (6S)-3-[2,6-Difluoro-4-(2-phenylethynyl)phenyl]-1,6-dimethyl-6-(6-oxo-1H-pyridazin-3-yl)hexahydropyrimidine-2,4-dione]	115%	18 nM	–
CN1C(=O)N(c2c(F)cc(C#Cc3ccccc3)cc2F)C(=O)C[C@@]1(C)c1ccc(=O)n(C)n1 [Example 83, (6S)-3-[2,6-Difluoro-4-(2-phenylethynyl)phenyl]-1,6-dimethyl-6-(1-methyl-6-oxo-pyridazin-3-yl)hexahydropyrimidine-2,4-dione]	116%	42 nM	–
CN1C(=O)N(c2c(F)cc(C#Cc3ccccc3)cc2F)C(=O)C[C@@]1(C)c1cnc2c(ccn2C)c1 [Example 84, (6S)-3-[2,6-Difluoro-4-(2-phenylethynyl)phenyl]-1,6-dimethyl-6-(1-methylpyrrolo[2,3-b]pyridin-5-yl)hexahydropyrimidine-2,4-dione]	114%	40 nM	–
CN1C(=O)N(c2c(F)cc(C#Cc3ccccc3)cc2F)C(=O)C[C@@]1(C)c1ccc2nccn2n1 [Example 85, (6S)-3-[2,6-Difluoro-4-(2-phenylethynyl)phenyl]-6-imidazo[1,2-b]pyridazin-6-yl-1,6-dimethyl-hexahydropyrimidine-2,4-dione]	88%	57 nM	–
N[C@@H](CCP(=O)(O)O)C(=O)O [L-AP4, (2S)-2-amino-4-phosphonobutanoic acid]	–	–	neuroprotection [3]: neuroprotective effects
